# According to patent publication US20160194308A1, “NOVEL PIPERIDINYL BENZOIMIDAZOLE DERIVATIVES AS MPGES-1 INHIBITORS” (NovaSAID AB, priority 2013, published 2016):
# pIC50: −log10 of the molar value.
# Key:
# [1] = molecular target: T1, hERG potassium currents (CHO-K1 cells stably transfected with hERG) (Homo sapiens, UniProt Q12809); assay: Automated whole-cell patch-clamp hERG assay; format: cell-based; conditions: for pIC50: Qpatch, tail current, CHO-K1 cells, 0.39 μM to 100 μM cumulatively; for IC50 ratio hERG/mPGEs-1: ratio of hERG IC50 to human mPGEs-1 IC50
# T1 construct: expressed in transfected cells; host or cells: CHO-K1 cells (American Tissue Culture Collection), stably transfected
# T1 sequence (Q12809 whole entry): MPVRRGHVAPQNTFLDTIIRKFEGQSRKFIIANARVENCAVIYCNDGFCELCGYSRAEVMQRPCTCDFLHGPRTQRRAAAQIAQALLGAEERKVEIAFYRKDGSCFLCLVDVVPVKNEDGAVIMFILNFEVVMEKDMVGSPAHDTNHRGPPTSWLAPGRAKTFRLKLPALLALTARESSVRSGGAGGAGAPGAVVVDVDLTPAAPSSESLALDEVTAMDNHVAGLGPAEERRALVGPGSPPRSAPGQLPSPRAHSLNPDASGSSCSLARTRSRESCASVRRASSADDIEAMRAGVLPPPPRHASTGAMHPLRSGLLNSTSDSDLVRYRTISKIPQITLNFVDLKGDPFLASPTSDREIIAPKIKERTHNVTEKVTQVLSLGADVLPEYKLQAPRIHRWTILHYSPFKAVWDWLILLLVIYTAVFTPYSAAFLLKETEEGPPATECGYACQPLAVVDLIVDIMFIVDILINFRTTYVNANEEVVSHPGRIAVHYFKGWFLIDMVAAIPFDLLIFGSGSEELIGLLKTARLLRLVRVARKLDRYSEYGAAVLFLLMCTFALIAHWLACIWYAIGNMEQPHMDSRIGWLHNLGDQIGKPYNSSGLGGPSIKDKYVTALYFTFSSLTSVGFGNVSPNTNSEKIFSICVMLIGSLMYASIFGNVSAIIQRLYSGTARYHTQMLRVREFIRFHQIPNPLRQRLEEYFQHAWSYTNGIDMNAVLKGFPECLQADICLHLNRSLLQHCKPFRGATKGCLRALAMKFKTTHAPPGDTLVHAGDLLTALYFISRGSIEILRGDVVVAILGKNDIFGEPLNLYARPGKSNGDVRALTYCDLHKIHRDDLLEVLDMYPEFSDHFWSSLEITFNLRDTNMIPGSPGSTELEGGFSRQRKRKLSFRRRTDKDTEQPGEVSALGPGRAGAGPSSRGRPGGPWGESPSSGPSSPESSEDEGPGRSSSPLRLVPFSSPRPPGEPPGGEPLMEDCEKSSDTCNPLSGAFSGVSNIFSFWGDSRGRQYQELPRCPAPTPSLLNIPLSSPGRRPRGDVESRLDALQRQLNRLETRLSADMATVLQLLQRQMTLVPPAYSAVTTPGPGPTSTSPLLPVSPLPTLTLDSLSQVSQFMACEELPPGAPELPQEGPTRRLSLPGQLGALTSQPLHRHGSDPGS
# Protocol: The automated whole-cell patch-clamp hERG assay uses CHO-K1 cells obtained from American Tissue Culture Collection. hERG cDNA (GenBank sequence NM_000238) was subcloned into pSI vector (Promega). The CHO-K1 cells were co-transfected with this construct and pPUR (containing puromycin selective marker, BD Bioscience). After selection in puromycin for 10 days, single colonies were selected and verified with hERG potassium currents. The stably transfected cells were cultured in F-12 Kaighn's Nutrient Mixture medium (Invitrogen)+10% FBS at 37 C for 1-3 days. Subsequently the cells were harvested by trypsination and kept in serum free medium at room temperature before recording. The cells were washed and resuspended in extracellular solution before being applied to the patch clamp sites.
# After whole cell configuration was achieved, the cell was held at −80 mV. A 50 millisecond pulse to −40 mV was delivered to measure the leaking current, which was subtracted from the tail current on-line. Then the cell was de-polarized to +20 mV for 2 seconds, followed by a second pulse to −40 mV to reveal hERG tail current. The paradigm was delivered once every 5 seconds to monitor the current amplitude. The extracellular solution (control) was applied first and the cell was stabilized in extracellular solution for 5 minutes. Then the test compound was applied from low concentrations (0.39 μM) to high concentrations (100 μM) cumulatively. The cell was incubated with each test concentration for 5 minutes. During the incubation, the cell was repeatedly stimulated using the voltage protocol described above, and the tail current amplitude was continuously monitored.
# Data were acquired by Qpatch (Sophion Bioscience) and the degree of inhibition (%) was obtained by measuring the tail current amplitude before and after test compound incubation (the difference in current was normalized to control and multiplied by 100 to obtain the percent of inhibition). Concentration (log) response curves were fitted to a logistic equation (three parameters assuming complete block of the current at very high test compound concentrations) to generate estimates of the 50% inhibitory concentration (IC50). The concentration-response relationship of each compound was constructed from the percentage reductions of current amplitude by sequential concentrations (0.39 μM to 100 μM).
# Further background information on the hERG assay is available in Expert Opin. Ther. Targets (2006) 10(2):319-327.
# [2] = molecular target: T2, recombinant membrane-bound human mPGEs-1 (Homo sapiens, UniProt O14684); assay: Thiobarbituric acid assay (TBA-MDA assay), inhibition of mPGEs-1; format: biochemical; conditions: arithmetic mean values, human mPGEs-1 TBA-MDA assay
# T2 sequence (O14684 1-152): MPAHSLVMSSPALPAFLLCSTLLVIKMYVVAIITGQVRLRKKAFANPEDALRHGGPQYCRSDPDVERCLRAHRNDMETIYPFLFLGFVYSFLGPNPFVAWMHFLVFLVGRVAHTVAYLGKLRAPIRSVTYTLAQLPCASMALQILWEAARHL
# Source text: Malondialdehyde is a product of lipid peroxidation and reacts with thiobarbituric acid forming a red product that absorbs light at 535 nm (W. G. Niehaus, Jr and B. Samuelsson, Eur. J. Biochem 6, 126 (1968)) and is also fluorescent. The extinction coefficient of the TBA-MDA conjugate is 1.56×10^5 M^−1 cm^−1 (E. D. Wills. Biochem. J. 113, 315 (1969). The method used for detection of inhibition of mPGEs-1 is based on the detection of the amount of remaining PGH2. This method was described more than 20 years ago by Basevich et al (Bioorg. Khim. 1983, 9(5), 658-665).
# The assay used was a modified variant and used citric acid instead of the TCA-TBA-HCl reagent described in the original assay. In this assay, recombinant membrane-bound human mPGEs-1 was incubated with PGH2. The reaction was stopped by adding citric acid to a final pH 3 and a large excess of iron(II) chloride (20 mM) to convert any remaining PGH2 into MDA and 12-HHT. TBA reagent was finally added (0.67%) and the samples were heated at 80° C. for 30 min. The fluorescence of the conjugate was measured at 485/545 nm.
# The product of mPGEs-1 (PGE2) was not measured directly in this assay, but rather the remaining substrate (PGH2) indirectly by adding FeCl2 that converts PGH2 into MDA and 12-HHT. As a positive control, a known mPGEs-1 inhibitor, MK-886, was used and the inhibition afforded by the new inhibitors was compared with that obtained from MK-886.
SMILES,pIC50 [1],IC50 ratio hERG/mPGEs-1 [1],pIC50 [2]
"Cc1cc2c(cc1Cl)nc(N1CCC(C(=O)N[C@@H]3CCOC3)CC1)n2-c1ccc(C(F)(F)F)cn1 [Comparative Example 3, (R)-1-(5-chloro-6-methyl-1-(5-(trifluoromethyl)pyridin-2-yl)-1H-benzo[d]imidazol-2-yl)-N-(tetrahydrofuran-3-yl)-piperidine-4-carboxamide]",4.72,328,–
"Cc1cc2nc(N3CCC(C(=O)N[C@@H]4CCOC4)CC3)n(-c3ccc(C(F)(F)F)cn3)c2cc1Cl [Comparative Example 4, (R)-1-(6-chloro-5-methyl-1-(5-(trifluoromethyl)pyridin-2-yl)-1H-benzo[d]imidazol-2-yl)-N-(tetrahydrofuran-3-yl)-piperidine-4-carboxamide]",4.85,304,–
"O=C(N[C@@H]1CCOC1)C1CCN(c2nc3cc(Cl)c(Cl)cc3n2-c2cccc(C(F)(F)F)n2)CC1 [Comparative Example 5, (R)-1-(5,6-dichloro-1-(6-(trifluoromethyl)pyridin-2-yl)-1H-benzo[d]imidazol-2-yl)-N-(tetrahydrofuran-3-yl)piperidine-4-carboxamide]",5.68,88,7.62
"Cc1cc2c(cc1Cl)nc(N1CCC(C(=O)N[C@H]3COC[C@@H]3O)CC1)n2-c1cccc(C(F)(F)F)n1 [Example 1, 1-(5-chloro-6-methyl-1-(6-(trifluoromethyl)pyridin-2-yl)-1H-benzo[d]imidazol-2-yl)-N-((3S,4R)-4-hydroxytetrahydrofuran-3-yl)piperidine-4-carboxamide]",4.42,1000,7.42
"Cc1cc2nc(N3CCC(C(=O)N[C@H]4COC[C@@H]4O)CC3)n(-c3cccc(C(F)(F)F)n3)c2cc1Cl [Example 2, 1-(6-chloro-5-methyl-1-(6-(trifluoromethyl)pyridin-2-yl)-1H-benzo[d]imidazol-2-yl)-N-((3S,4R)-4-hydroxytetrahydrofuran-3-yl)piperidine-4-carboxamide]",< 4.00,>3125,7.49
